Source: the NIST ThermoML archive (doi:10.1016/j.jct.2012.09.012)
Numbers after ± are expanded uncertainties.

Experiment: molar heat capacity at constant pressure; xn = mol fraction of the nth substance listed
Conditions: 101 kPa, Liquid, Small sample (50 mg) DSC

CC1=CC[C@H]2C[C@@H]1C2(C)C [(S)-2-pinene] + C=C1CCC2CC1C2(C)C
molar heat capacity at constant pressure [J/K/mol]
Conditions	x1 = 0.1002	x1 = 0.2041	x1 = 0.2997	x1 = 0.3922	x1 = 0.5012	x1 = 0.5907	x1 = 0.7026	x1 = 0.7987	x1 = 0.9002	x1 = 1
313.16 K	249.31 ± 8.2	250.67 ± 8.2	250.67 ± 8.2	252.03 ± 8.2	250.67 ± 8.2	249.31 ± 8.2	250.67 ± 8.2	252.03 ± 8.2	253.4 ± 8.2	250.67 ± 8.2
318.16 K	252.03 ± 8.2	252.03 ± 8.2	252.03 ± 8.2	253.4 ± 8.2	253.4 ± 8.2	252.03 ± 8.2	253.4 ± 8.2	253.4 ± 8.2	254.76 ± 8.2	252.03 ± 8.2
323.16 K	256.12 ± 8.2	254.76 ± 8.2	256.12 ± 8.2	256.12 ± 8.2	254.76 ± 8.2	254.76 ± 8.2	256.12 ± 8.2	254.76 ± 8.2	256.12 ± 8.2	256.12 ± 8.2
328.22 K	257.48 ± 8.2	256.12 ± 8.2	257.48 ± 8.2	258.84 ± 8.2	256.12 ± 8.2	257.48 ± 8.2	258.84 ± 8.2	256.12 ± 8.2	258.84 ± 8.2	257.48 ± 8.2
333.22 K	260.21 ± 8.2	258.84 ± 8.2	258.84 ± 8.2	260.21 ± 8.2	258.84 ± 8.2	261.57 ± 8.2	260.21 ± 8.2	257.48 ± 8.2	260.21 ± 8.2	260.21 ± 8.2
338.19 K	264.29 ± 8.2	261.57 ± 8.2	262.93 ± 8.2	262.93 ± 8.2	262.93 ± 8.2	262.93 ± 8.2	262.93 ± 8.2	261.57 ± 8.2	262.93 ± 8.2	264.29 ± 8.2
343.18 K	267.02 ± 9.5	265.66 ± 8.2	267.02 ± 9.5	265.66 ± 8.2	265.66 ± 8.2	267.02 ± 9.5	264.29 ± 8.2	264.29 ± 8.2	265.66 ± 8.2	267.02 ± 9.5
348.15 K	269.74 ± 9.5	268.38 ± 9.5	269.74 ± 9.5	268.38 ± 9.5	269.74 ± 9.5	268.38 ± 9.5	267.02 ± 9.5	267.02 ± 9.5	268.38 ± 9.5	269.74 ± 9.5
353.18 K	273.83 ± 9.5	272.47 ± 9.5	272.47 ± 9.5	271.11 ± 9.5	272.47 ± 9.5	272.47 ± 9.5	269.74 ± 9.5	269.74 ± 9.5	269.74 ± 9.5	272.47 ± 9.5
358.15 K	275.19 ± 9.5	273.83 ± 9.5	273.83 ± 9.5	273.83 ± 9.5	275.19 ± 9.5	275.19 ± 9.5	272.47 ± 9.5	271.11 ± 9.5	272.47 ± 9.5	275.19 ± 9.5
363.18 K	277.92 ± 9.5	276.56 ± 9.5	276.56 ± 9.5	276.56 ± 9.5	277.92 ± 9.5	277.92 ± 9.5	273.83 ± 9.5	275.19 ± 9.5	275.19 ± 9.5	277.92 ± 9.5
